Where no end group is shown, it is not given here.
Columns and labels:
[1] = test system: rmIL-23; assay: Binding of monkey antiserum to rmIL-23, ELISA; parameters: species or system mouse; conditions: monkey antiserum 6 weeks after the initial administration; second statement of b202, FIG. 7(b) covers rhIL-23 and rmIL-23
Experimental: FIG. 7(a) is a graph showing the antibody titer (GMT) of serum collected over time from Macaca fascicularis administered with AJP001 conjugated peptide (SEQ ID NO: 6). FIG. 7(b) is a graph showing the binding ability to rhIL-23 and rmIL-23 of serum collected from the Macaca fascicularis administered with AJP001 conjugated peptide (SEQ ID NO: 6) at 6 weeks after the first administration. FIG. 7(c) is a graph showing the evaluation of neutralization activity of IgG derived from Macaca fascicularis administered with AJP001 conjugated peptide (SEQ ID NO: 6). FIG. 7(d) is a graph showing the results of epitope mapping of anti-IL-23 antibody induced by AJP001 conjugated peptide (SEQ ID NO: 6).
AJP001 conjugated peptide (SEQ ID NO: 6) was dissolved in physiological saline and subcutaneously administered to Macaca fascicularis (female, […], N=4) at 5 mg/body 3 times at two-week intervals. Blood was collected every two weeks from the first day of administration until week 16, and the antibody titer (GMT) and binding to IL-23 of the serum at each time point were measured by the ELISA method (same method as in Example 1; the secondary antibody used was Anti-Monkey IgG (Abcam)). In FIG. 7, “*” means P<0.05.

[2] = test system: epitope peptide; assay: Antibody titer (GMT) of serum of Macaca fascicularis, ELISA; format: in vivo; conditions: 5 mg/body subcutaneous 3 times at two-week intervals, blood every two weeks until week 16
Experimental: AJP001 conjugated peptide having one of the B cell epitope sequences of SEQ ID NOs: 1-5 was dissolved in physiological saline and intradermally administered twice to BALB/c mice (female, 6-week-old, N=5-6) at 0.5 mg/body at 2-week intervals. Blood was collected before administration and 5 weeks after the initial administration, and the antibody titer against each AJP001 conjugated peptide and the binding ability to recombinant mouse IL-23 protein (rmIL-23) were measured by the ELISA method. […] After washing the wells with PBS-T, TMB solution (SIGMA) was added, the wells were allowed to stand for 30 min in the dark, the reaction was stopped by adding 0.5M H2SO4, and the absorbance at 450 nm was measured using a plate reader. The serum dilution rate that gave 1/2 (OD=1.75) of the maximum absorbance was defined as the antibody titer, and the geometric mean titer: GMT was calculated from the individual values. Binding to IL-23 protein was measured by the ELISA method in the same manner as the antibody titer, using rmIL-23 (Antibodies-online GmbH) as the solid-phased antigen and goat serum for blocking. […] Blood was collected every two weeks from the first day of administration until week 16, and the antibody titer (GMT) and binding to IL-23 of the serum at each time point were measured by the ELISA method (same method as in Example 1; the secondary antibody used was Anti-Monkey IgG (Abcam)). […]

- binding to rmIL-23 [1]: not observed
Substance: SEQ ID NO 6: AJP001-Ahx-B cell epitope peptide conjugate; epitope SPSQPWQR (human 151-158) (not fully specified (N-terminus); listed as Homo sapiens)
- antibody titer (GMT) over time [2]: increased from 2 weeks after the initial administration and persisted until 16 weeks
